According to paper PMC9787790, “Functional Characterization of Novel Bony Fish Lipoxygenase Isoforms and Their Possible Involvement in Inflammation” (International Journal of Molecular Sciences, 2022):

Assays:
[1] = biological target: T1, ALOX-isoform of P. nyererei (putative ALOX15 ortholog) (Pundamilia nyererei, UniProt A0A3B4GKQ4); test: lysate supernatant oxygenation assay, RP-HPLC / NP-HPLC of products; format: biochemical; settings: 100 µM AA; 3 min; products after reduction 12-HETE (major) and 8-HETE
T1 construct: gene alox12; cell lysate supernatant used (activity lost on purification)
T1 sequence (A0A3B4GKQ4 1-670): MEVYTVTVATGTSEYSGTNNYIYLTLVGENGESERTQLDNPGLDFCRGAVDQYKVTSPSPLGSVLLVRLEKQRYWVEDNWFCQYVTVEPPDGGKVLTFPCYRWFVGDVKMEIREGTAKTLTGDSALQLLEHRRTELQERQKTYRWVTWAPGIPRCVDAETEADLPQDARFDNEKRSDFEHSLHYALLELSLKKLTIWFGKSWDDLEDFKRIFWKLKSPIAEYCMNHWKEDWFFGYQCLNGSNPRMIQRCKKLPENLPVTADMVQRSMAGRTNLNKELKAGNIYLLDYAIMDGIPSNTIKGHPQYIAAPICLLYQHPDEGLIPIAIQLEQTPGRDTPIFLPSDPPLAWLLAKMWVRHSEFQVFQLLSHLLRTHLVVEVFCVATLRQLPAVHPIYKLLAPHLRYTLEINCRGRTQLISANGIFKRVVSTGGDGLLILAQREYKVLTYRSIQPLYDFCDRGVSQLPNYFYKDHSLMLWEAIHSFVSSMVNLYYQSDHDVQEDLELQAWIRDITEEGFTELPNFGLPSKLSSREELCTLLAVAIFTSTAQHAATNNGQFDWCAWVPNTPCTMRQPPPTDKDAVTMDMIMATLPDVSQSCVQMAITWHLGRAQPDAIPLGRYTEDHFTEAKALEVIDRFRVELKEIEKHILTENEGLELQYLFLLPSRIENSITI

[2] = biological target: T2, ALOX-isoform of N. furzeri (putative ALOX15 ortholog) (Nothobranchius furzeri, UniProt A0A1A7ZHE9); test: as above; format: biochemical; settings: 100 µM AA; 3 min; products after reduction 12-HETE (major) and 8-HETE
T2 construct: gene ALOX12; cell lysate supernatant used (activity lost on purification)
T2 sequence (A0A1A7ZHE9 1-670): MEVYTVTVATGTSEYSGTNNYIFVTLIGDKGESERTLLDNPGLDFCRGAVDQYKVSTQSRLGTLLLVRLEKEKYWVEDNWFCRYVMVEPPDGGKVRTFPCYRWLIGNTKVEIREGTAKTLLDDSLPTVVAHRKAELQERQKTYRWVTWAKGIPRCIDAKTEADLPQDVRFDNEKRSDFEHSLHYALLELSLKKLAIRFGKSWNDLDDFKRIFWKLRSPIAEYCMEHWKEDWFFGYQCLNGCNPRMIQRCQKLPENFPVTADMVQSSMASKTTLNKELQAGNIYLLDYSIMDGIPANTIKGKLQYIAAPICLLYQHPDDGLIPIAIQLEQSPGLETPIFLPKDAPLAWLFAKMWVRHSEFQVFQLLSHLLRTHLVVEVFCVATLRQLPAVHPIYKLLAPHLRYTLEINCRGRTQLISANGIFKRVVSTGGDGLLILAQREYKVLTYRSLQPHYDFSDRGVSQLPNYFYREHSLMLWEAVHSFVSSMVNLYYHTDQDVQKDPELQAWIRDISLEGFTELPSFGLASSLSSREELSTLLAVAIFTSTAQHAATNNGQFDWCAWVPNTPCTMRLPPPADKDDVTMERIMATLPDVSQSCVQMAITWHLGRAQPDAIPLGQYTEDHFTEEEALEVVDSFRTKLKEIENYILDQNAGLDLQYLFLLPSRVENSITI

## CCCCC/C=C\C/C=C\C/C=C\C/C=C\CCCC(=O)O [AA, arachidonic acid]
[1]
  lysate supernatant oxygenation assay, RP-HPLC / NP-HPLC of products: AA is oxygenated by the three bony fish ALOX-isoforms to a mixture of 12-HETE
[2]
  lysate supernatant oxygenation assay, RP-HPLC / NP-HPLC of products: AA is oxygenated by the three bony fish ALOX-isoforms to a mixture of 12-HETE
